PubChem BioAssay (NCI)
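Compound exposure: 48 hours, 5 concentrations, 96-well plates. Abbreviation: GI50, concentration required for 50% inhibition of growth. At the TGI there is no net growth.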

Columns and labels:
Assay in all cases: NCI-60 cell line screen, 48 h
786-0 renal = system: 786-0 renal
A498 renal = system: A498 renal
A549 NSCLC = system: A549 NSCLC
ACHN renal = system: ACHN renal
BT-549 breast = system: BT-549 breast
CAKI-1 renal = system: CAKI-1 renal
COLO 205 colon = system: COLO 205 colon
DU-145 prostate = system: DU-145 prostate
EKVX NSCLC = system: EKVX NSCLC
HCC-2998 colon = system: HCC-2998 colon
HCT-116 colon = system: HCT-116 colon
HCT-15 colon = system: HCT-15 colon
HOP-62 NSCLC = system: HOP-62 NSCLC
HOP-92 NSCLC = system: HOP-92 NSCLC
HS 578T breast = system: HS 578T breast
IGROV1 ovarian = system: IGROV1 ovarian
KM12 colon = system: KM12 colon
LOX IMVI melanoma = system: LOX IMVI melanoma
M14 melanoma = system: M14 melanoma
MALME-3M melanoma = system: MALME-3M melanoma
MCF7 breast = system: MCF7 breast
MDA-MB-231 breast = system: MDA-MB-231 breast
MDA-MB-435 = system: MDA-MB-435
NCI-H226 lung = system: NCI-H226 lung
NCI-H23 lung = system: NCI-H23 lung
NCI-H460 lung = system: NCI-H460 lung
NCI-H522 lung = system: NCI-H522 lung
NCI/ADR-RES ovarian = system: NCI/ADR-RES ovarian
OVCAR-3 ovarian = system: OVCAR-3 ovarian
OVCAR-4 ovarian = system: OVCAR-4 ovarian
OVCAR-5 ovarian = system: OVCAR-5 ovarian
OVCAR-8 ovarian = system: OVCAR-8 ovarian
PC-3 prostate = system: PC-3 prostate
RXF 393 renal = system: RXF 393 renal
SF-268 CNS = system: SF-268 CNS
SF-295 CNS = system: SF-295 CNS
SF-539 CNS = system: SF-539 CNS
SK-MEL-2 melanoma = system: SK-MEL-2 melanoma
SK-MEL-28 melanoma = system: SK-MEL-28 melanoma
SK-MEL-5 melanoma = system: SK-MEL-5 melanoma
SK-OV-3 ovarian = system: SK-OV-3 ovarian
SNB-19 CNS = system: SNB-19 CNS
SNB-75 CNS = system: SNB-75 CNS
SW-620 colon = system: SW-620 colon
T-47D breast = system: T-47D breast
TK-10 renal = system: TK-10 renal
U251 CNS = system: U251 CNS
UACC-257 melanoma = system: UACC-257 melanoma
UACC-62 melanoma = system: UACC-62 melanoma
UO-31 renal = system: UO-31 renal

In the case of COC(=O)c1cc(O)c2cc3c(cc2c1-c1cc(OC)c(OC)c(OC)c1)OCO3, the GI50 (786-0 renal) is reported as 6.23 µM, the TGI (786-0 renal) is reported as > 100 µM and the GI50 (A498 renal) is reported as 0.494 µM. For the same molecule, the TGI (A498 renal) was > 100 µM, the GI50 (A549 NSCLC) was 0.762 µM and the TGI (A549 NSCLC) was > 100 µM. For the same molecule, the GI50 (ACHN renal) was 2.59 µM, the TGI (ACHN renal) was > 100 µM and the GI50 (BT-549 breast) was 7.87 µM. For the same molecule, the TGI (BT-549 breast) was > 100 µM, the GI50 (CAKI-1 renal) was 0.344 µM and the TGI (CAKI-1 renal) was 5.46 µM. For the same molecule, the GI50 (COLO 205 colon) was 2.77 µM, the TGI (COLO 205 colon) was > 100 µM and the GI50 (DU-145 prostate) was 2.16 µM. For the same molecule, the TGI (DU-145 prostate) was > 100 µM, the GI50 (EKVX NSCLC) was 2.63 µM and the TGI (EKVX NSCLC) was > 100 µM. The GI50 (HCC-2998 colon) was 6.85 µM, the TGI (HCC-2998 colon) was > 100 µM and the GI50 (HCT-116 colon) was 0.604 µM. The TGI (HCT-116 colon) was > 100 µM, the GI50 (HCT-15 colon) was 0.738 µM and the TGI (HCT-15 colon) was > 100 µM. The GI50 (HOP-62 NSCLC) was 1.79 µM, the TGI (HOP-62 NSCLC) was 18.4 µM and the GI50 (HOP-92 NSCLC) was 4.19 µM. For the same molecule, the TGI (HOP-92 NSCLC) was 48.1 µM, the GI50 (HS 578T breast) was 1.43 µM and the TGI (HS 578T breast) was 9.48 µM. For the same molecule, the GI50 (IGROV1 ovarian) was 0.91 µM, the TGI (IGROV1 ovarian) was > 100 µM and the GI50 (KM12 colon) was 0.503 µM. The TGI (KM12 colon) was > 100 µM, the GI50 (LOX IMVI melanoma) was 1.67 µM and the TGI (LOX IMVI melanoma) was > 100 µM. For the same molecule, the GI50 (M14 melanoma) was 0.893 µM, the TGI (M14 melanoma) was > 100 µM and the GI50 (MALME-3M melanoma) was 0.815 µM. For the same molecule, the TGI (MALME-3M melanoma) was > 100 µM, the GI50 (MCF7 breast) was 0.459 µM and the TGI (MCF7 breast) was > 100 µM. For the same molecule, the GI50 (MDA-MB-231 breast) was 1.5 µM, the TGI (MDA-MB-231 breast) was > 100 µM and the GI50 (MDA-MB-435) was 0.277 µM. For the same molecule, the TGI (MDA-MB-435) was 1.12 µM, the GI50 (NCI-H226 lung) was 5.12 µM and the TGI (NCI-H226 lung) was > 100 µM. For the same molecule, the GI50 (NCI-H23 lung) was 3.77 µM, the TGI (NCI-H23 lung) was > 100 µM and the GI50 (NCI-H460 lung) was 0.686 µM. The TGI (NCI-H460 lung) was > 100 µM, the GI50 (NCI-H522 lung) was 0.272 µM and the TGI (NCI-H522 lung) was 1.13 µM. The GI50 (NCI/ADR-RES ovarian) was 0.462 µM, the TGI (NCI/ADR-RES ovarian) was > 100 µM and the GI50 (OVCAR-3 ovarian) was 0.325 µM. The TGI (OVCAR-3 ovarian) was 1.15 µM, the GI50 (OVCAR-4 ovarian) was > 100 µM and the TGI (OVCAR-4 ovarian) was > 100 µM. The GI50 (OVCAR-5 ovarian) was 50.2 µM, the TGI (OVCAR-5 ovarian) was > 100 µM and the GI50 (OVCAR-8 ovarian) was 11.3 µM. For the same molecule, the TGI (OVCAR-8 ovarian) was > 100 µM, the GI50 (PC-3 prostate) was 2.01 µM and the TGI (PC-3 prostate) was > 100 µM. The GI50 (RXF 393 renal) was 2.95 µM, the TGI (RXF 393 renal) was > 100 µM and the GI50 (SF-268 CNS) was 2.94 µM. For the same molecule, the TGI (SF-268 CNS) was > 100 µM, the GI50 (SF-295 CNS) was 0.536 µM and the TGI (SF-295 CNS) was 5.03 µM. For the same molecule, the GI50 (SF-539 CNS) was 3.34 µM, the TGI (SF-539 CNS) was > 100 µM and the GI50 (SK-MEL-2 melanoma) was 0.4 µM. The TGI (SK-MEL-2 melanoma) was 6.21 µM, the GI50 (SK-MEL-28 melanoma) was 5.34 µM and the TGI (SK-MEL-28 melanoma) was > 100 µM. The GI50 (SK-MEL-5 melanoma) was 0.891 µM, the TGI (SK-MEL-5 melanoma) was > 100 µM and the GI50 (SK-OV-3 ovarian) was 3.02 µM. For the same molecule, the TGI (SK-OV-3 ovarian) was > 100 µM, the GI50 (SNB-19 CNS) was 3.57 µM and the TGI (SNB-19 CNS) was > 100 µM. The GI50 (SNB-75 CNS) was 1.37 µM, the TGI (SNB-75 CNS) was 32 µM and the GI50 (SW-620 colon) was 0.496 µM. The TGI (SW-620 colon) was > 100 µM, the GI50 (T-47D breast) was 2.38 µM and the TGI (T-47D breast) was > 100 µM. The GI50 (TK-10 renal) was 2.16 µM, the TGI (TK-10 renal) was > 100 µM and the GI50 (U251 CNS) was 0.577 µM. The TGI (U251 CNS) was > 100 µM, the GI50 (UACC-257 melanoma) was 1.8 µM and the TGI (UACC-257 melanoma) was > 100 µM. The GI50 (UACC-62 melanoma) was 1.17 µM, the TGI (UACC-62 melanoma) was > 100 µM and the GI50 (UO-31 renal) was 4.92 µM. The TGI (UO-31 renal) was > 100 µM.
